{
  "source": "paper PMC5826917",
  "about": "“A small molecule inhibitor of Nicotinamide N-methyltransferase for the treatment of metabolic disorders” (Scientific Reports, 2018)",
  "key": {"[1]": {"tested_on": "endogenous NNMT activity in differentiated 3T3L1 cells", "experiment": "Cell based 3T3L1 assay (MNA levels by LC-MS/MS)", "parameters": "species or system mouse", "procedure": "(§1) PE-Sciex API-4000 triple quadrupole (PerkinElmerSciex Instruments, Boston, MA) mass spectrometer was employed for this analysis. […] Detection of the ions was performed in the multiple reaction monitoring (MRM) mode, monitoring the transition of the m/z 137 precursor ion to the m/z 92 product ion for MNA and m/z 141 precursor ion to the m/z 84 product ion for d4-MNA (internal standard).\n(§2) The supernatant was separated and transferred to pre-labeled HPLC vials and analyzed by LC-MS/MS system."}, "[2]": {"tested_on": "Na+/K+ ATPase Pump", "experiment": "Selectivity panel: Na+/K+ ATPase", "format": "biochemical", "details": "10 µM"}, "[3]": {"tested_on": "ob/ob mice", "experiment": "Chronic efficacy study in ob/ob mice", "format": "in vivo, mouse", "procedure": "Samples for MNA were analyzed employing a fit-for-purpose LC-MS/MS method. PE-Sciex API-4000 triple quadrupole (PerkinElmerSciex Instruments, Boston, MA) mass spectrometer was employed for this analysis. Samples (5 µL) were injected onto Kinetex HILIC (50 × 4.6 mm, 2.6 µm; Phenomenex, Torrance, CA, USA) column connected to Shimadzu VP (Shimadzu, Japan) LC system. The gradient mobile phase mixture of 0.2% formic acid and acetonitrile was delivered at a flow rate of 0.45 ml min-1 into the mass spectrometer electrospray ionization (ESI) chamber. Quantitation was achieved by MS/MS detection in positive ion mode for MNA and internal standard (d4–MNA). Detection of the ions was performed in the multiple reaction monitoring (MRM) mode, monitoring the transition of the m/z 137 precursor ion to the m/z 92 product ion for MNA and m/z 141 precursor ion to the m/z 84 product ion for d4-MNA (internal standard).\nA simple protein precipitation extraction method was followed for extraction of N-methylnicotinamide from plasma and various tissue homogenate samples. The tissue samples were homogenized with 1:3 proportions of phosphate buffer saline (PBS) and this homogenate was used for N-Methylnicotinamide determinations. To an aliquot of ~50 μL of plasma/ liver homogenate/ adipose tissue homogenate samples ~300 µl of acetonitrile containing IS (d4-MNA) solution was added, followed by vortex for ~3 minutes and centrifuged for 10 minutes at 14,000 rpm. The supernatant was separated and transferred to pre-labeled HPLC vials and analyzed by LC-MS/MS system.\nMale C57BL6/N (Vivo Bio Tech Ltd, India), ob/ob (B6.V-Lepob/OlaHsd) and its lean control (Envigo laboratories Inc, USA) and db/db (BKS.Cg- + Leprdb/ + Leprdb/OlaHsd) and its lean control (Envigo laboratories Inc, USA) were housed in individually ventilated cages (n = 5/cage) under standard laboratory conditions. The study room environment was maintained at a temperature of 21–24 °C and, relative humidity at 40–70%. The animal rooms were maintained under 12 h light and dark cycle. Animals were provided with ad libitum access to water and food (except where noted otherwise, e.g. during fasting prior for glucose tolerance tests, fasting prior to terminal sacrifice). Animals were acclimatized for 1 week before initiation of studies. For Diet induced obesity (DIO) mice study, C57BL6/N mice were maintained on rodents chow diet (Teklad; Harlan) or HFD (60% Kcal; Research diet) for 14 weeks before study initiation and throughout the study period. ob/ob and db/db mice and their lean controls were maintained on rodents chow diet (Teklad; Harlan). All the experiments were approved by Institutional Animal Ethics Committee (IAEC) of Jubilant Biosys Ltd, India.\nLean control + Vehicle and HFD + Vehicle Control groups (G1 and G2) mice were administered with vehicle. Dose formulations of HFD + JBSNF-000088, 50 mg kg^−1, po, bid were administered at dose volume of 5 mL kg^−1 body weight to G3 mice. Similar pattern was followed for ob/ob mice and db/db mice studies. The dose volume for individual animals was calculated based on the most recently recorded body weight during the study period. […] Cage side observations of animals for visible clinical signs, was carried out once daily throughout the study period. Individual animal body weights were recorded twice weekly during the study period.\nThe ob/ob mice were 12 weeks of age at the start of the study and db/db mice were 8 weeks of age at the start of the study. DIO mice were 20 weeks of age at the start of the study. In each study, non-diabetic lean mice comprised the control group which received vehicle (0.5% w/v HEC and 0.5% v/v Tween 80) and obese or diabetic mice were randomly assigned to two groups based on body weight and unfasted glucose which received either vehicle (0.5% w/v HEC and 0.5% v/v Tween 80) or JBSNF-000088, 50 mg kg^−1, po, bid for 30 days."}, "[4]": {"target": "Adenosine Receptor 2A (ADORA2A) (Homo sapiens, UniProt P29274)", "sequence (P29274 whole entry)": "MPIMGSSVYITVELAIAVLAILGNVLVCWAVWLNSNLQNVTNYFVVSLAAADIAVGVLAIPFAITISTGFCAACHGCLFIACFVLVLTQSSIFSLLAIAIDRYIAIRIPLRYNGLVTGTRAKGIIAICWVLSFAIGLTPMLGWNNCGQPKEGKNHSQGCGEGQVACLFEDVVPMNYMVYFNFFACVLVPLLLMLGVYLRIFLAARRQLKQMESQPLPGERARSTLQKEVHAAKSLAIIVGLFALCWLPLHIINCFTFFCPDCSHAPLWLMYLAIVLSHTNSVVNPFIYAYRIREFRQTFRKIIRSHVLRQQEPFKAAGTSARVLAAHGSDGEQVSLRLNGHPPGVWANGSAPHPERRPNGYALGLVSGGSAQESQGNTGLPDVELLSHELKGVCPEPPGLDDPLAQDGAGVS", "experiment": "Selectivity panel: ADORA2A", "format": "cell-based"}, "[5]": {"target": "Mono Amine Oxydase A (MAO-A) (Homo sapiens, UniProt P21397)", "sequence (P21397 whole entry)": "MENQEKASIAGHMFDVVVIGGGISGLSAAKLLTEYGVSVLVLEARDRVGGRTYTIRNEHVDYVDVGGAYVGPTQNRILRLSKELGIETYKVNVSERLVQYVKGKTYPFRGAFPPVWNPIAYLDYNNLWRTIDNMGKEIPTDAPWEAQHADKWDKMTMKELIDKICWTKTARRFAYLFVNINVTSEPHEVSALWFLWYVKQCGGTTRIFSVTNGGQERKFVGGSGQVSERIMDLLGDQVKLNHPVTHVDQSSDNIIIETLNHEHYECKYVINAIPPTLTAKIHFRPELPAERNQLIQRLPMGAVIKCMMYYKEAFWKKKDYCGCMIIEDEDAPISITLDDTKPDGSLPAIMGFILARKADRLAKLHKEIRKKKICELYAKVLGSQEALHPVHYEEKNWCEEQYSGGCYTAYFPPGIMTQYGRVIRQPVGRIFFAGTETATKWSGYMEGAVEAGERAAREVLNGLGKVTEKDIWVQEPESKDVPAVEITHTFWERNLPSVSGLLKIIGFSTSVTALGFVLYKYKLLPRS", "experiment": "Selectivity panel: MAO-A", "format": "biochemical", "details": "read-out: I% (antagonistic or inhibitory), MAO-A"}, "[6]": {"tested_on": "Nicotinic AChR Receptor Muscle-Type", "experiment": "Selectivity panel: nAChR muscle-type", "format": "binding", "details": "10 µM"}, "[7]": {"target": "Serotonin receptor 2B (5HT2B (Homo sapiens, UniProt P41595))", "sequence (P41595 whole entry)": "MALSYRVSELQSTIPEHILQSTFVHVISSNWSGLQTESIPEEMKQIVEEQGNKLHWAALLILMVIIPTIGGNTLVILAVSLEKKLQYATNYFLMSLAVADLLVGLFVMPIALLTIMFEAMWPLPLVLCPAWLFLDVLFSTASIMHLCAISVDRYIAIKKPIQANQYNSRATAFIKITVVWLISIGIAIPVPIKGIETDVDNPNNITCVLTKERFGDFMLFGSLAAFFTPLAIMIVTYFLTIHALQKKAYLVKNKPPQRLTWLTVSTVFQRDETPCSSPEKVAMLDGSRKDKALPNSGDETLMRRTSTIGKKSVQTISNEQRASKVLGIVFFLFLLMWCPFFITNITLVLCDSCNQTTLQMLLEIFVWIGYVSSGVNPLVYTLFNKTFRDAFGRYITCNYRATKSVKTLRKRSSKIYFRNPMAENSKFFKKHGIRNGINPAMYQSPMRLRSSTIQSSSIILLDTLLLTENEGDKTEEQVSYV", "experiment": "Selectivity panel: 5HT2B", "format": "cell-based", "procedure": "Supplement 41598_2018_22081_MOESM1_ESM.docx, table 2: Supplementary table 2: Selectivity profile of JBSNF-000088 (at 10 µM) vs a panel of 34 receptors, channels and enzymes. | column: E% (agonistic); I% (antagonistic or inhibitory)"}, "[8]": {"experiment": "in vivo", "details": "C57BL/6, mouse"}, "[9]": {"target": "Histamine Receptor 1 (H1) (Homo sapiens, UniProt P35367)", "sequence (P35367 whole entry)": "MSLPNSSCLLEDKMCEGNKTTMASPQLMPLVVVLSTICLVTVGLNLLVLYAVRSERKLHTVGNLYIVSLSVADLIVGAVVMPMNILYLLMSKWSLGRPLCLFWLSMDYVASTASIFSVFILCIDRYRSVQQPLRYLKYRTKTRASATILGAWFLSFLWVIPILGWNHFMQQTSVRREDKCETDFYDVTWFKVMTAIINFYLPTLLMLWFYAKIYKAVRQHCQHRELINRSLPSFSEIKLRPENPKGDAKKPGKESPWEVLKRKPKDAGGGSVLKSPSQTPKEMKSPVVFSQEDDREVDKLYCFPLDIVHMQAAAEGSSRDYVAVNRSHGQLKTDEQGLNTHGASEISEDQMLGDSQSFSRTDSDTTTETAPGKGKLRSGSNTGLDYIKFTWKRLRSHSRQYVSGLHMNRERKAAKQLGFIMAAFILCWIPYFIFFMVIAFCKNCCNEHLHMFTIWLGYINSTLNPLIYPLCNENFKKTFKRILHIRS", "experiment": "Selectivity panel: H1", "format": "cell-based"}, "[10]": {"tested_on": "endogenous NNMT activity in U2OS cells", "experiment": "Cell based U2OS assay (MNA levels by LC-MS/MS)", "details": "Homo sapiens, 24 h treatment", "procedure": "as §1, §2"}, "[11]": {"target": "cGMP-inhibited 3,5-cyclic phosphodiesterase A (PDEA3) (Homo sapiens, UniProt Q14432)", "sequence (Q14432 whole entry)": "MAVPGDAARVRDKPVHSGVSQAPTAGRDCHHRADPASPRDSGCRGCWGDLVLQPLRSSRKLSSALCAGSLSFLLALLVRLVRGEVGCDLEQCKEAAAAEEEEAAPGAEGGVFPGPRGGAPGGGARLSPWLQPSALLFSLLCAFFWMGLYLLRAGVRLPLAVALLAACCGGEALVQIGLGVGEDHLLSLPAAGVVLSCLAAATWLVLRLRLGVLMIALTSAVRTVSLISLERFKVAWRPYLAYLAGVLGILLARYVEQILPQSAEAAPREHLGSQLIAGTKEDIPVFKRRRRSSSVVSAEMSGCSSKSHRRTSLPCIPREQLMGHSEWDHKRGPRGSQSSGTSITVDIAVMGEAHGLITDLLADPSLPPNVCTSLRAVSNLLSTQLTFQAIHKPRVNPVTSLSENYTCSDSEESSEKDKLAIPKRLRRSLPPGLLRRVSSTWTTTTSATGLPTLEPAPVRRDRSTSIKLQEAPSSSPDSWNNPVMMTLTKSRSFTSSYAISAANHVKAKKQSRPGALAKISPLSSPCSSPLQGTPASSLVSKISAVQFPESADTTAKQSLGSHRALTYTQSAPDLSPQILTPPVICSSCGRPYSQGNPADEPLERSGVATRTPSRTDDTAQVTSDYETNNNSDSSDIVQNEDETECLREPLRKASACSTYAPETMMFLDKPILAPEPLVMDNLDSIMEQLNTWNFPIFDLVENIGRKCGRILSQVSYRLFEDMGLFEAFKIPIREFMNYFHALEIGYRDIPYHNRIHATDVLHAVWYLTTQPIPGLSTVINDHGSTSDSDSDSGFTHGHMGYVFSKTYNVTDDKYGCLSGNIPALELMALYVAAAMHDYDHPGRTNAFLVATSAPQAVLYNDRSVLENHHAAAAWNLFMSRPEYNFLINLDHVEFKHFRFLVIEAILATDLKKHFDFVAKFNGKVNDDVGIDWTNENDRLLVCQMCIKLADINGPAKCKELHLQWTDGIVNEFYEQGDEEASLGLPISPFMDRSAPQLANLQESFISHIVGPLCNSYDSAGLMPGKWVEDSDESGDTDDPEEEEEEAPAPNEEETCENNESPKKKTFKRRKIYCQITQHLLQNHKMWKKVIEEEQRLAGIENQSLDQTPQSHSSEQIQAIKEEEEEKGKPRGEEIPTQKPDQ", "experiment": "Selectivity panel: PDEA3", "format": "biochemical", "details": "read-out: I% (antagonistic or inhibitory), PDEA3"}, "[12]": {"experiment": "in vitro", "details": "human, microsomes, Metabolic stability human microsomes (% remaining)"}},
  "data": [
    {"smiles": "COc1ccc(C(N)=O)cn1", "note": "[JBSNF-000088, 6-methoxynicotinamide]", "values": [
      {"measurement": "IC50", "setting": "[1]; Mus musculus, 3T3-L1, 24 h treatment, MNA by LC-MS/MS", "result": 6.3, "unit": "µM"},
      {"measurement": "right shift in potency, 3T3L1 cells compared to U2OS cells", "setting": "[1]; ratio of cellular IC50 values", "result": "approximately 4 fold"},
      {"measurement": "I% (antagonistic or inhibitory), Na+/K+ ATPase Pump", "setting": "[2]", "result": 0, "unit": "%"},
      {"measurement": "body weight gain", "setting": "[3]; 50 mg/kg b.i.d p.o., 30 days, vs vehicle", "result": "gained comparable weight"},
      {"measurement": "MNA levels in visceral WAT and subcutaneous fat", "setting": "[3]; 30 days, p < 0.0001 vs vehicle control", "result": "statistically significant reduction"},
      {"measurement": "fed blood glucose or insulin", "setting": "[3]; day 21, vs vehicle control", "result": "no reduction"},
      {"measurement": "glucose tolerance", "setting": "[3]; day 28", "result": "statistically significant improvement"},
      {"measurement": "AUC blood glucose (OGTT)", "setting": "[3]; day 28, p < 0.001 vs vehicle control", "result": "significantly (p < 0.001) lower"},
      {"measurement": "plasma insulin", "setting": "[3]; fed days 7, 14 or 21, fasting day 28, 15 minutes after glucose bolus", "result": "not accompanied by a reduction in plasma insulin"},
      {"measurement": "HOMA-IR index", "setting": "[3]; p < 0.001 vs vehicle control", "result": "statistically significant improvement"},
      {"measurement": "cumulative food intake", "setting": "[3]; vs vehicle", "result": "comparable"},
      {"measurement": "E% (agonistic), ADORA2A", "setting": "[4]; 10 µM", "result": 4, "unit": "%"},
      {"measurement": "inhibition at 10 µM", "setting": "[4]; read-out: I% (antagonistic or inhibitory), ADORA2A", "result": 2, "unit": "%"},
      {"measurement": "inhibition at 10 µM", "setting": "[5]", "result": -1, "unit": "%"},
      {"measurement": "I% (antagonistic or inhibitory), Nicotinic AChR Receptor Muscle-Type", "setting": "[6]", "result": -2, "unit": "%"},
      {"measurement": "E% (agonistic), 5HT2B", "setting": "[7]; 10 µM", "result": 4, "unit": "%"},
      {"measurement": "inhibition at 10 µM", "setting": "[7]; read-out: I% (antagonistic or inhibitory), 5HT2B", "result": 13, "unit": "%"},
      {"measurement": "Vd", "setting": "[8]", "result": 0.69, "unit": "L/kg"},
      {"measurement": "bioavailability", "setting": "[8]", "result": 43, "unit": "%"},
      {"measurement": "clearance", "setting": "[8]", "result": 20.5, "unit": "mL/min/kg"},
      {"measurement": "clearance", "setting": "[8]; iv", "result": 21, "unit": "mL/min/kg"},
      {"measurement": "half-life", "setting": "[8]; iv", "result": 30, "unit": "min"},
      {"measurement": "Cmax", "setting": "[8]; po, 10 mg/kg", "result": 3570, "unit": "ng/mL"},
      {"measurement": "Tmax", "setting": "[8]; po, 10 mg/kg", "result": 30, "unit": "min"},
      {"measurement": "bioavailability", "setting": "[8]; po, 10 mg/kg", "result": "~40", "unit": "%"},
      {"measurement": "half-life", "setting": "[8]; po, 10 mg/kg", "result": 24, "unit": "min"},
      {"measurement": "E% (agonistic), H1", "setting": "[9]; 10 µM", "result": -2, "unit": "%"},
      {"measurement": "inhibition at 10 µM", "setting": "[9]; read-out: I% (antagonistic or inhibitory), H1", "result": -5, "unit": "%"},
      {"measurement": "IC50", "setting": "[10]", "result": 1.6, "unit": "µM"},
      {"measurement": "inhibition at 10 µM", "setting": "[11]", "result": -1, "unit": "%"},
      {"measurement": "remaining at 0.5 h", "setting": "[12]", "result": "> 70", "unit": "%"}
    ]}
  ]
}
